Assay results as given in ChEMBL document CHEMBL1201862, “PubChem BioAssay data set” (2004).
Structures can show the parent of a compound that is named as a salt. The source made the active and inactive calls.

What was measured:
[1] = biological target: Prothrombin (Homo sapiens, UniProt P00734); assay: Thrombin 1536 HTS Dose Response Confirmation. [Related pubchem assays: 1046 (Thrombin 1536 HTS; hits were confirmed in this assay)]; assay type: functional
[2] = tested on: Streptococcus; assay: GAS bacterial viability reduction – luminescence, BacTiter-Glo, strain UMAA2166, counter-screen for streptokinase expression inhibitor project, dose response (AID 2477); assay type: functional, organism-based
[3] = biological target: T1, Streptokinase A (Streptococcus pyogenes serotype M1, UniProt P10520); assay: Absorbance Microorganism-Based Dose Response Follow up to Identify Inhibitors of Streptokinase Expression. [Related pubchem assays: 1677 (Project Summary), 1915, 1914, 1902 (Retest at Dose), 1900 (Counter Screen), 1662 (Primary HTS)]; assay type: functional, Streptococcus pyogenes M1 GAS
T1 sequence (P10520 whole entry): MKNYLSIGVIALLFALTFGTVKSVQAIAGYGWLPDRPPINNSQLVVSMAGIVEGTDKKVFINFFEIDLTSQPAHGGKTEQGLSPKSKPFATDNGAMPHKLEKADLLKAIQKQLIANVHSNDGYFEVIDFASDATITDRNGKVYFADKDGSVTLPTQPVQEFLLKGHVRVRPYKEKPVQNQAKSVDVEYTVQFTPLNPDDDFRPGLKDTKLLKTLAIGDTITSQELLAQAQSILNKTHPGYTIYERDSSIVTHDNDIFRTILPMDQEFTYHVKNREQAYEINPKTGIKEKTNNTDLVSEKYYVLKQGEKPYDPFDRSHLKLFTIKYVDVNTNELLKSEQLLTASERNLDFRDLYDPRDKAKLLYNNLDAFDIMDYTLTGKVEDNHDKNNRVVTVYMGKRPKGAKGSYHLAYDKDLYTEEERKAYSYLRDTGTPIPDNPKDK

[4] = biological target: T2, 1-phosphatidylinositol 4,5-bisphosphate phosphodiesterase gamma-1 (Homo sapiens, UniProt P19174); assay: Counterscreen for inhibitors of phospholipase C isozymes (PLC-B3): Fluorescence-based biochemical high throughput dose response assay to identify inhibitors of phospholipase C isozymes (PLC-gamma1).
T2 sequence (P19174 whole entry): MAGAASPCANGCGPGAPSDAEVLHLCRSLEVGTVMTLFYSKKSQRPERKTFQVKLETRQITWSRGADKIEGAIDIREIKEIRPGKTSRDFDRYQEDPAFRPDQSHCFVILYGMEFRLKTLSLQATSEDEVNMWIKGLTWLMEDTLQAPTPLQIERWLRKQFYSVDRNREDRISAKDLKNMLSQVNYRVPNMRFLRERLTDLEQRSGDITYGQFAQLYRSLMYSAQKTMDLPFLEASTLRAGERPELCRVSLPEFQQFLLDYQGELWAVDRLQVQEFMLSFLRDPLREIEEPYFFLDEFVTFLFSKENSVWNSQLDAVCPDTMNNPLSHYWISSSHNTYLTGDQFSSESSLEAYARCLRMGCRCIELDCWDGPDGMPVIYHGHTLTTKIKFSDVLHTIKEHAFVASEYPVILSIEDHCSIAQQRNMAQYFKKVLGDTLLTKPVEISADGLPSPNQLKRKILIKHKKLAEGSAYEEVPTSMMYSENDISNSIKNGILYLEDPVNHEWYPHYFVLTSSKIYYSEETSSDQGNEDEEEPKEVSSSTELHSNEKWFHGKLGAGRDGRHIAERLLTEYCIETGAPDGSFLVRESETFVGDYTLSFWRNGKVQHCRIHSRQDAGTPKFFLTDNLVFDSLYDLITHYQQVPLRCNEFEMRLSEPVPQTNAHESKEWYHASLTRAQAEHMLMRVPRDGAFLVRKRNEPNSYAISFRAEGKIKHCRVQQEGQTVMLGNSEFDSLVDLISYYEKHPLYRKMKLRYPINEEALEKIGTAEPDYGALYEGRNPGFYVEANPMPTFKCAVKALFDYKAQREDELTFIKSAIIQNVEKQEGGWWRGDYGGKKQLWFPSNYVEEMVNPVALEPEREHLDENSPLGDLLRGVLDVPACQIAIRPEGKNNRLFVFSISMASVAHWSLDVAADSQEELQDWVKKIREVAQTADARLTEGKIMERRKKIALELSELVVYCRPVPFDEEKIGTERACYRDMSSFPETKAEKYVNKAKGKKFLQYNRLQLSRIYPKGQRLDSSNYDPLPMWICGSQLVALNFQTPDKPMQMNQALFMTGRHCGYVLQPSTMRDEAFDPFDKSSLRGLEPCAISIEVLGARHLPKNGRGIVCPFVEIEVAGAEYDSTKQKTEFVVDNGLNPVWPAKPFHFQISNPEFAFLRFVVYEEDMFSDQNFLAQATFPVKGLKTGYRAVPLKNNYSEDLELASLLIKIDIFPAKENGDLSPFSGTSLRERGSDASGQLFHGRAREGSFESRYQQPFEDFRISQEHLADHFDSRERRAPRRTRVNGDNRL

[5] = biological target: Cytochrome P450 2D6 (Homo sapiens, UniProt P10635);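 note: CYP2D6 member of a cytochrome P450 panel assay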
Chain of Cytochrome P450 2D6 (P10635 whole entry): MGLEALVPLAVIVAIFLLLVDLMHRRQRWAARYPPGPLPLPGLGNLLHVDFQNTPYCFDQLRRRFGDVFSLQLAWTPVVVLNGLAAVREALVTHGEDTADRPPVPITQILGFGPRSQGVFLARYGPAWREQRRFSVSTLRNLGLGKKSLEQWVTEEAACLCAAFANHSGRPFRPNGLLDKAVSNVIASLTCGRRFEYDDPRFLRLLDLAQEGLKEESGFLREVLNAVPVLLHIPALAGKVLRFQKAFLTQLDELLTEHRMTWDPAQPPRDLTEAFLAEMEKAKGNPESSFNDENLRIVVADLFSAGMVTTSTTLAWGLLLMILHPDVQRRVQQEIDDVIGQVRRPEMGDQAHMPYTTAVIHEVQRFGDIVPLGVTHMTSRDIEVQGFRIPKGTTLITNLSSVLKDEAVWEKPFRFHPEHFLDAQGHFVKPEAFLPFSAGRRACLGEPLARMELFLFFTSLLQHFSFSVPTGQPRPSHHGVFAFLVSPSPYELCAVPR

[6] = biological target: T3, 1-phosphatidylinositol 4,5-bisphosphate phosphodiesterase beta-3 (Homo sapiens, UniProt Q01970); assay: Fluorescence-based biochemical high throughput dose response assay to identify inhibitors of phospholipase C isozymes (PLC-B3).
T3 sequence (Q01970 whole entry): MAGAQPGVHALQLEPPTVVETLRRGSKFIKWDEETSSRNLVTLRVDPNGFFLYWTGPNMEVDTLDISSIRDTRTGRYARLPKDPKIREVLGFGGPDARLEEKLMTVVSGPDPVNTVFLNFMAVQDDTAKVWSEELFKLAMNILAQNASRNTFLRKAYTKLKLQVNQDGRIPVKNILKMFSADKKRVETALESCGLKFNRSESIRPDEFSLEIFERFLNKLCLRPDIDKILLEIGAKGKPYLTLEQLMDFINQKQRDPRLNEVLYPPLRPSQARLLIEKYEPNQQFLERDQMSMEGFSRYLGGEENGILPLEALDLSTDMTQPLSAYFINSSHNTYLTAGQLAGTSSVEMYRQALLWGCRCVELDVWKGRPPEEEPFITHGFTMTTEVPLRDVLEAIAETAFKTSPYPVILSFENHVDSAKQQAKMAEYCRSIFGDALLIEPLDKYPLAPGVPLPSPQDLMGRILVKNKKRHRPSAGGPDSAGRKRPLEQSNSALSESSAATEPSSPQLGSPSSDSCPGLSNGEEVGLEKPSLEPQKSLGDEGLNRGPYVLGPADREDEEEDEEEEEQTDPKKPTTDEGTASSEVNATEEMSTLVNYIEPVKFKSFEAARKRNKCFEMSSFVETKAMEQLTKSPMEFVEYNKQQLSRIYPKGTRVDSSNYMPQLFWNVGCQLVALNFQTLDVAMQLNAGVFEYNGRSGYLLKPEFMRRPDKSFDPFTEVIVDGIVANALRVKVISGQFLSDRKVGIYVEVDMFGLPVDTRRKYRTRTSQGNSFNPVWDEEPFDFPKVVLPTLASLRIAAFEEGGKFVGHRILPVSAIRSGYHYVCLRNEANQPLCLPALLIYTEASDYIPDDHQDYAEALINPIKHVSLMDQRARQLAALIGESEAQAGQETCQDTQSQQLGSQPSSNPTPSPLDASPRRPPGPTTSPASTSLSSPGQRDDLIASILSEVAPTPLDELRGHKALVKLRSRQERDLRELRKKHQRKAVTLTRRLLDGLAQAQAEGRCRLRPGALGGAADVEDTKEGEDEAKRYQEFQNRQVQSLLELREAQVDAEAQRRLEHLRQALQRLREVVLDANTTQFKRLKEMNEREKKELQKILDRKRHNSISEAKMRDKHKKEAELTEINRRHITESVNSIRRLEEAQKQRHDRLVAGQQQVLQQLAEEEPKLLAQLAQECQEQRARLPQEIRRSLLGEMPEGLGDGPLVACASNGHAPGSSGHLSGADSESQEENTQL

[7] = HPDE-C7 pancreatic duct cell viability loss – fluorescence, HTS (AID 430); assay type: functional, cell-based; settings: Homo sapiens
[8] = viability loss of HPDE-C7K cells – cell-based, fluorescence, HTS, primary screen (AID 431); assay type: functional; settings: Homo sapiens
[9] = biological target: T4, Mannose-6-phosphate isomerase (Homo sapiens, UniProt P34949); assay: MPI inhibition at elevated mannose 6-phosphate – biochemical, fluorescence intensity, high mannose 6-phosphate, primary screen (AID 1220)
T4 sequence (P34949 whole entry): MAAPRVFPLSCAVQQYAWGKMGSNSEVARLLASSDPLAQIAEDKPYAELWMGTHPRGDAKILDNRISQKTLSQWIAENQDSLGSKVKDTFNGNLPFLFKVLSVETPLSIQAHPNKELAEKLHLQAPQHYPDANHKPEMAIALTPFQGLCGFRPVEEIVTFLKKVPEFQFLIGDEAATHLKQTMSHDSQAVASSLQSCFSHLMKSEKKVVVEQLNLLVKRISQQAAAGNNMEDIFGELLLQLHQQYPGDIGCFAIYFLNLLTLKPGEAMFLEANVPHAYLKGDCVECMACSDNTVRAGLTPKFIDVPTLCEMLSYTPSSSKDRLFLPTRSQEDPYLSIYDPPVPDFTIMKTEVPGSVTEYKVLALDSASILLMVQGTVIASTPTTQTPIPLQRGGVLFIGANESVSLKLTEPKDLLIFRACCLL

[10] = biological target: Induced myeloid leukemia cell differentiation protein Mcl-1 (Homo sapiens, UniProt Q07820); assay type: functional
Chain of Induced myeloid leukemia cell differentiation protein Mcl-1 (Q07820 whole entry): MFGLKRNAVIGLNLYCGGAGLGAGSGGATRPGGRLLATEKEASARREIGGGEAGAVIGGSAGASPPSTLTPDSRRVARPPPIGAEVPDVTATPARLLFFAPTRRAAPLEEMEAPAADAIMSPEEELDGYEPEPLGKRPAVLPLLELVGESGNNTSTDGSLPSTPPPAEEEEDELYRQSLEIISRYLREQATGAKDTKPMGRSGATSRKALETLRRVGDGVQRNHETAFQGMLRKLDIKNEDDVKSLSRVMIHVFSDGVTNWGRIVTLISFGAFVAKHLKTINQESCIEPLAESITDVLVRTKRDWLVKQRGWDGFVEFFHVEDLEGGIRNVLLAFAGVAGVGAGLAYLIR

[11] = NIH-3T3 fibroblast cytotoxicity, dose response, cytotoxicity control, cell-based, fluorescence, Alamar Blue, secondary assay (AID 2327); assay type: functional;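 note: NIH-3T3 mouse fibroblasts cultured with fluconazole at 8 µg/mL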
[12] = NIH3T3 cell viability loss – ATP luminescence, mouse fibroblasts, counter-screen, dose response (AID 2010); assay type: functional, cell-based;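 note: cells exposed to compound for about 90 hours before reading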
[13] = tested on: INS1; assay: INS-1E survival protection against cytokine death – cell-based, luminescence, retest, dose response (AID 449756); assay type: functional; settings: Rattus norvegicus;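 note: cell death triggered by IL-1 beta plus TNF-alpha plus IFN-gamma mixture; protective hits raise ATP signal compared with cytokine alone wells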
[14] = biological target: Nonstructural protein 1 (Influenza A virus, UniProt Q194T2); assay type: functional, Influenza A virus (A/California/07/2009(H1N1))
Chain of Nonstructural protein 1 (Q194T2 whole entry): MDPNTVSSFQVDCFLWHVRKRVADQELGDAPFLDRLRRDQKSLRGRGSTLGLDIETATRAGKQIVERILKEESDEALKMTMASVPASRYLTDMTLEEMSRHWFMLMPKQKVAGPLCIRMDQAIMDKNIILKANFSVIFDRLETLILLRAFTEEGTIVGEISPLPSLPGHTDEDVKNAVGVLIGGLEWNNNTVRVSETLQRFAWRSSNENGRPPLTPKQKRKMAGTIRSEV

[15] = fluconazole-exposed Candida albicans growth modulators – fluorescence, retest, confirmation (AID 2467); assay type: functional, cell-based
[16] = Trypanosoma cruzi growth suppression in host cells – NIH3T3 host cells, beta-gal luminescence, confirmation (AID 2044); assay type: functional, cell-based;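 note: intracellular parasites grown in NIH/3T3 mouse fibroblasts as host cells; luminescent beta-galactosidase reporter signal from transgenic T. cruzi replicating inside host cells; inhibitors lower the luminescence signal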
[17] = biological target: T5, Caspase-6 (Homo sapiens, UniProt P55212); assay: inhibition of CASP6 peptide cleavage – biochemical, VEID-R110 fluorescence, cherry-pick, dose response (AID 720632)
T5 sequence (P55212 whole entry): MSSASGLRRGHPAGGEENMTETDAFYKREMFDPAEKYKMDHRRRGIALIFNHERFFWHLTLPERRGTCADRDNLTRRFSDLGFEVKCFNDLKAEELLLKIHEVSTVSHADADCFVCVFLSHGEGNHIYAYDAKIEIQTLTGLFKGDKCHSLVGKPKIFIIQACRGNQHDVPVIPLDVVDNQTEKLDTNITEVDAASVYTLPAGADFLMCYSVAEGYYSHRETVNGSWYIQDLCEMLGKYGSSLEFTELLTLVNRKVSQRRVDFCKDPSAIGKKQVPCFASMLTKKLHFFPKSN

[18] = biological target: Voltage-dependent T-type calcium channel subunit alpha-1H (Homo sapiens, UniProt O95180); assay type: functional;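 note: channel activity triggered by adding a high calcium stimulation buffer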
Chain of Voltage-dependent T-type calcium channel subunit alpha-1H (O95180 whole entry): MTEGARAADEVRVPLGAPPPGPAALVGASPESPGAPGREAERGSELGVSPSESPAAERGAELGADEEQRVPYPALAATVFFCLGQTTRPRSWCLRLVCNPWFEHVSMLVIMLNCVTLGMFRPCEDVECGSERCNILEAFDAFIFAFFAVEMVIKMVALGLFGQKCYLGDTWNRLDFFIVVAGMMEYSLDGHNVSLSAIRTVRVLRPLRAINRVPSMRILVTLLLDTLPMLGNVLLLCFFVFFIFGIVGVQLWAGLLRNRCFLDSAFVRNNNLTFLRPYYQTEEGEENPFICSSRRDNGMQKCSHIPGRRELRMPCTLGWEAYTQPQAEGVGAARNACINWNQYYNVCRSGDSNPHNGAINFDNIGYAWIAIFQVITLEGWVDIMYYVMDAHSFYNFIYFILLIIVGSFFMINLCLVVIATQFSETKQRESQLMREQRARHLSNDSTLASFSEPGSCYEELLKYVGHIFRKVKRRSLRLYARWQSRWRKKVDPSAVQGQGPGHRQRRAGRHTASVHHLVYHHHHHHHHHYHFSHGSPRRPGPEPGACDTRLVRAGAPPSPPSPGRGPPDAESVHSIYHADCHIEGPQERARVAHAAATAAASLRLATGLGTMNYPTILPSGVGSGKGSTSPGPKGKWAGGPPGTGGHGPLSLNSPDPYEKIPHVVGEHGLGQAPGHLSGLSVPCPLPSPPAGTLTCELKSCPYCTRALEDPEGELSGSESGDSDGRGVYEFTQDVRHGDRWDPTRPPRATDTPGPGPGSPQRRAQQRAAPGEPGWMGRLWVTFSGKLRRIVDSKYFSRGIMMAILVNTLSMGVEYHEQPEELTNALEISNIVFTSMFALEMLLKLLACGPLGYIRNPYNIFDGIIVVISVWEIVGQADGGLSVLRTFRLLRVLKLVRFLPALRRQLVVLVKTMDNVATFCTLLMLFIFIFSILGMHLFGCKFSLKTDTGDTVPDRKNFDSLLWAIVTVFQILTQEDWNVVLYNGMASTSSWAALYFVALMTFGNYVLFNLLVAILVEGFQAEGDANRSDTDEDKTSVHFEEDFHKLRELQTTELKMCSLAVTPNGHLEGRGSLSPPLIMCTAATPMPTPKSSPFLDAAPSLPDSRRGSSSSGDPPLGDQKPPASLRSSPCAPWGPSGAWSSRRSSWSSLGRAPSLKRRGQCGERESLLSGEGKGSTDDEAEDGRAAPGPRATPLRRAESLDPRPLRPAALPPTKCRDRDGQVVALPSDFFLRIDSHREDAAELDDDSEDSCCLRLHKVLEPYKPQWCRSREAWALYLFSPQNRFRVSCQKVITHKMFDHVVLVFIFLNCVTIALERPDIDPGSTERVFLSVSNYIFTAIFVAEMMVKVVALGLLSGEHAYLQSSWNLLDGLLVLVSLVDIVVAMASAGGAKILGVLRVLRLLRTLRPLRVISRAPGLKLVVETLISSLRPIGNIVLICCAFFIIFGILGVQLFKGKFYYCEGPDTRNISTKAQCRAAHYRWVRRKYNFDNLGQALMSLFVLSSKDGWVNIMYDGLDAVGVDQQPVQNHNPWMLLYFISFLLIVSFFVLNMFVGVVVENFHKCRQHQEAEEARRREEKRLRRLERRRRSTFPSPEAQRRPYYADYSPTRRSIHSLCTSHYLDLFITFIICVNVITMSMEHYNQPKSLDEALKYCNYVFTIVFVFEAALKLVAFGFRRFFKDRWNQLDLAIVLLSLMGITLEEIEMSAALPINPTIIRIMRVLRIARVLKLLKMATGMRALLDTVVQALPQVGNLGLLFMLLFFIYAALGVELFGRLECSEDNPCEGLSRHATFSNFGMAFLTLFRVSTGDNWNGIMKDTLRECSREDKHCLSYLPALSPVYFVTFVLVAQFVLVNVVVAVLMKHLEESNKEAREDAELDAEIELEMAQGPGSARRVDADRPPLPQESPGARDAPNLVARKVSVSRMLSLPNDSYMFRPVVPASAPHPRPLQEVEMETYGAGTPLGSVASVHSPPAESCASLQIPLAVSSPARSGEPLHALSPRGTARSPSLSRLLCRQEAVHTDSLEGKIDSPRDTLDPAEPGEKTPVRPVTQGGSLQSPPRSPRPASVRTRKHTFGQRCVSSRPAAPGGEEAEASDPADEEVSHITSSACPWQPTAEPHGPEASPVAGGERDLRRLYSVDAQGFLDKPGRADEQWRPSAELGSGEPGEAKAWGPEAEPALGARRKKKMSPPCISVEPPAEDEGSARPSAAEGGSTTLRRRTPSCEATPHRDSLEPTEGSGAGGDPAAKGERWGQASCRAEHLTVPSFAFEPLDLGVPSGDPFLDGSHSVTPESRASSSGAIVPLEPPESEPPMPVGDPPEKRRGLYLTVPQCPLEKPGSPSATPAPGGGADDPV

[19] = Luminescence Cell-Based Dose Retest to Confirm Inhibitors of Cancer Stem Cells. [Related pubchem assays (depositor defined):AID2717, AID2721]; assay type: functional; settings: Homo sapiens

In the case of `Cc1cc(C(=O)OCC(=O)c2cccc([N+](=O)[O-])c2)c2cccc(C)c2n1`, the IC50 [1] is reported as > 50 µM (inconclusive).

For `CCc1nccn1C(=O)c1cnn2c(C(F)F)cc(-c3ccccc3)nc12`, the IC50 [1] was 0.916 µM (active).

With `CCCOc1ccc(-c2nc(Oc3ccc(OC)cc3)c3ccccc3n2)cc1` the EC50 [2] was > 500 µM (not active) and the EC50 [3] was 179 µM (active).

For `O=C(Cc1cccs1)N1CCC(c2nc3c(nnn3Cc3ccccc3Cl)c(=O)[nH]2)CC1`, the IC50 [4] was > 122 µM (inactive), the AC50 [5] was 14.1 µM (inconclusive) and the IC50 [6] was > 122 µM (inactive).

In the case of `Cc1ccc(-n2c(C)cc(C3N=C(N)Nc4nc5ccccc5n43)c2C)c(C)c1` (stereo not given), the EC50 [7] is reported as 11 µM (active) and the EC50 [8] is reported as 12.7 µM (active).

For `COc1ccc(N2CCC(CNS(=O)(=O)c3cccc(C(F)(F)F)c3)C2)cc1` (stereo not given), the IC50 [9] was > 50 µM (not active) and the IC50 [10] was > 54 µM (active).

For `COc1nc(-c2ccccc2)nc2ccccc12`, the EC50 [2] was > 500 µM (not active) and the EC50 [3] was 75.4 µM (active).

For `CCOC(=O)C1CCN(Cc2ccc(O)c3ncccc23)CC1`, the EC50 [11] was 22.2 µM (active), the EC50 [12] was > 60 µM (not active) and the AC50 [13] was 3.76 µM (active). The IC50 [14] was 5.25 µM (active), the IC50 [9] was > 50 µM (not active) and the EC50 [15] was > 38 µM (not active). The EC50 [16] was 3.26 µM (active).

For `COC(=O)COc1nc(C)c2c(c1C#N)CC(C)(C)OC2`, the IC50 [4] was > 123 µM (inactive) and the IC50 [6] was > 123 µM (inactive).

With `Cc1ccc(/C=C/C2=Cc3c(sc(NC(=O)CSc4n[nH]c(N)n4)c3C#N)C(C)(C)C2)o1` the EC50 [7] was 7.52 µM (active) and the EC50 [8] was 7.17 µM (active).

With `O=[N+]([O-])c1cccc(NS(=O)(=O)c2ccc(-c3ccc(O)nn3)s2)c1` the AC50 [17] was 40.3 µM (active).

For `Cc1cccc(C)c1NC(=S)N/N=C/c1c(Cl)cccc1Cl`, the IC50 [1] was > 50 µM (not active).

For `Fc1ccc(C(c2ccc(F)cc2)N2CCN(C/C=C/c3ccccc3)CC2)cc1` [FLUNARIZINE DIHYDROCHLORIDE], the EC50 [18] was 5.62 µM (active), the EC50 [7] was 5.99 µM (active) and the AC50 [19] was 4.94 µM (active). For the same molecule, the EC50 [8] was 5.85 µM (active).
